# Measurements taken from patent US20090232853A1, “TREATMENT OF LAMINITIS” (priority 2005, published 2009).
# How the values were obtained:
# [1] = system: equine digital blood vessels; assay: isolated blood vessel work, isometric tension recording
# From the text: The coronary band veins and the distal artery were dissected from equine hind limbs obtained from abattoir collections (animals euthanased for non related reasons), cut into rings of approximately 3 mm in length and prepared for isometric tension recording—a method established in the laboratory for looking at endothelium intact responses of equine digital.
# [2] = system: Tyrosine decarboxylase (TDC); assay: inhibition of decarboxylase activity; type: biochemical; conditions: tyrosine to tyramine by TDC
# From the text: Tyrosine decarboxylase (TDC) decarboxylases tyrosine to tyramine.
# ponies = assay: effect of dietary fructan carbohydrates on normal and laminitic ponies; type: in vivo
# From the text: Eleven adult, native breed ponies were used in the diet study; 5 normals and 6 predisposed to laminitis (asymptomatic at the time of the study). A basal hay diet was fed for 2 weeks, prior to the inclusion of inulin (sourced from chicory root; 3 g/kg body weight per day), fed in 3 equal feeds. The daily forage ration also included ⅔ hay, by weight, and ⅓ Readigrass® (to act as a source of amino acids). Fecal and blood samples were taken during both diets to measure amine concentration (by HPLC and LC-MS, respectively) and fecal pH.
# [3] = system: streptococci and lactobacilli in equine caecal contents; assay: in vitro model of carbohydrate overload: enumeration of caecal streptococci and lactobacilli; parameters: species or system horses; conditions: virginiamycin 1 mg/100 ml, with corn starch or inulin
# Description: Use of an in vitro model of carbohydrate overload to study the change in populations of caecal streptococci and lactobacilli and to establish whether certain species of these bacteria were capable of producing vasoactive amines from amino acids.
# Caecal contents from 10 horses were divided into aliquots and incubated anaerobically with either corn starch or inulin (fructan; both 1 g 100 ml). Samples were taken at 6 h intervals over a 24 h period for enumeration of streptococci, lactobacilli and Gram-negative anaerobes by a dilution method onto standard selective growth media. […]
# Effects of carbohydrate overload on numbers of (a) streptococci, (b) lactobacilli and (c) Gram-negative anaerobes in equine caecal contents incubated anaerobically in vitro. […] Bacterial numbers in each aliquot at 6 h intervals were determined by serial dilution of caecal contents in sterile RPS plated onto selective growth medium. […]
# Effects of virginiamycin and calcium hydrogen-phosphate on numbers of Streptococcus and Lactobacillus spp. in equine caecal contents induced by incubation with starch or inulin. […] Bacterial numbers were measured at 0 and 24 h, expressed as CFU/ml, and the magnitude of the change over this period was calculated by dividing the number of bacteria present at 24 h by the initial figure (geometric mean±s.e.m. of estimates taken from 4 separate experiments).
# [4] = inulin diet vs basal hay diet, FIG. 12
compound,measurement,setting,value
"CC(=O)N[C@@H](CS)C(=O)O [NAC, N-acetyl cysteine]",relaxation of isolated digital blood vessels,"[1]; antioxidant added to the medium, vs control, FIG. 14",increase the relaxation above that of the control
same,contraction of digital veins in response to vasoactive amines,"[1]; pre incubation in the medium, response to Tryptamine, FIG. 15",reduced contraction
NC(CO)C(=O)NNCc1ccc(O)c(O)c1O (stereo not drawn) [benserazide],production of tyramine,[2],inhibited
C[C@@](Cc1ccc(O)c(O)c1)(NN)C(=O)O [carbidopa],production of tyramine,[2],inhibited
inulin,signs of laminitis,"ponies; inulin 3 g/kg body weight per day in 3 feeds, 5 normal and 6 laminitis-predisposed ponies",No animal showed any signs of laminitis
same,increase in tryptamine concentration,ponies; [4],58.6%
same,increase in tyramine concentration,ponies; [4],23.3%
virginiamycin,effect on carbohydrate-induced increases in numbers of streptococci and lactobacilli,[3],abrogated
O=c1c(-c2ccc(O)cc2)coc2cc(O)cc(O)c12 [genestin],reduction of contraction of digital veins in response to vasoactive amines,"[1]; flavonoid added to the medium, response to Tryptamine, FIG. 15",30%
